In US20150119442A1, “Biocide agents against marine woodborers” (Teredo Marine Protection ApS, priority 2008, published 2015):
Like-named read-outs stand apart in the source and are kept apart here.

Columns and labels:
[1] = for Leaching of EDDS, specimen with end sealing / Leaching of EDDS, specimen without end sealing: after one week, mean ± SD
Source text: The aim of this example is to show the leaching of EDDS in sea water, as well as the effect of the pH in sea water on the leaching.
Wood specimens were produced by the Danish Technological Institute, and made of sap wood of Pinus sylvestris in the dimension: 15×25×50 mm^3.
The impregnating solution used was an aqueous solution of 5% Octaquest® E30 (Innospec Limited, contains a 30% solution of trisodium-EDDS in water), 5% sodium carbonate and 5% ethanol. pH was adjusted to 4.5 with hydrochloric acid.
Three different sea water solutions were prepared using artificial sea water salt mix (Tropic Marin® Sea Salt) at half the recommended concentration (15 g/L corresponding to a specific gravity of 1010 kg/m^3), normal concentration (30 g/L corresponding to a specific gravity of 1019 kg/m^3) and half concentration with pH adjusted to 6. Specific gravity of sea water in the oceans range between 1020 and 1030 kg/m^3. For each solution six containers were prepared each containing five specimens. Half of the specimens in each solution were end sealed at both ends using Conclad 300 2-K membrane (product no. 5305A, Condor Kemi A/S, Denmark). The end seal was applied to evaluate the radial leaching of the impregnating agent in order to simulate the surfaces exposed in harbour piers.
The specimens were placed in the containers and 500 ml of sea water solution was added to each container.
After one week the water was collected and analysed for EDDS content by HPLC-UV; detection at 254 nm. The method used involved a reverse phase column and online complexing of EDDS with Cu(II)-ions. Quantifications were made from external standards (reference material used was “−30% Na3EDDS in water” from Fluka).

[2] = tested on: marine woodborers; experiment: Protective effectiveness against marine borers, EN 275 harbour exposure; format: in vivo, shipworm; settings: 6 months; compared to control subjects
Method: The guidelines and recommendations in EN 275: 1992—Wood preservatives—Determination of the protective effectiveness against marine borers were followed unless otherwise stated.
Wood specimens were made of sapwood of Pinus sylvestris in the dimensions: 200×75×25 mm3, with a hole ø25 mm in the centre. The specimens were produced by the Danish Technological Institute.
The biocide-impregnating solution was prepared in different compositions according to Table 4. pH was adjusted with hydrochloric acid, and 10 specimens were used for each composition of biocide-impregnating solution and each harbour exposure site.
The specimens were attached to test racks and placed in two different harbours in Denmark: Skagen (northern part of Jutland) and Rudkøbing (Langeland) on 26 and 24 Apr. 2007, respectively (FIG. 1). The specimens were collected again ˜6 months later on 23 and 25 Oct. 2007, respectively.
The attack by marine borers was evaluated by cutting up the specimen in five pieces and recording the number of borers present and the percentage of the area which they had attacked.

O=C(O)C[C@H](NCCN[C@@H](CC(=O)O)C(=O)O)C(=O)O [EDDS, (S,S)-ethylenediamine-disuccinate]
Leaching ([1]; all sea water solutions, in seven days): about 30% | Leaching from end sealed specimens compared with specimens without end sealing ([1]; all three types of sea water): significantly lower | Leaching of EDDS, specimen with end sealing ([1]; sea water normal conc.): 26.48 ± 0.92% | Leaching of EDDS, specimen without end sealing ([1]; sea water normal conc.): 33.56 ± 0.62% | Leaching of EDDS, specimen with end sealing ([1]; sea water ½ conc. pH 6): 30.07 ± 0.70% | Leaching of EDDS, specimen without end sealing ([1]; sea water ½ conc. pH 6): 36.14 ± 0.89% | Leaching of EDDS, specimen with end sealing ([1]; sea water ½ conc.): 32.08 ± 1.01% | Leaching of EDDS, specimen without end sealing ([1]; sea water ½ conc.): 34.08 ± 0.59% | Effectiveness against attack of shipworm [2]: effective
